Assays:
Assay type in all cases: cell-based, human
[1] = system: Jurkat cells expressing TCR2 (Jurkat-TCR2); details: CD69; T2 cells pulsed with peptide, 2 μM, 18 h
H1395 lung cancer cells = experiment: Cell-mediated cytotoxicity of H1395 lung cancer cells by TCR2 primary T cells; details: peptide-pulsed A*02+ H1395 cells, TMEM9-mer compared to LMP9-mer
[2] = system: Jurkat cells expressing TCR16; details: HLA-A*02:01, T2 cells pulsed with 9-mers
Jurkat-TCR15 clone = experiment: Stimulation of Jurkat-TCR15 clone; details: HLA-A*02 context; TCR15 CDR3β […]
[3] = system: primary T cells expressing TCR2; details: HLA-A*02+ 293T cells overexpressing full-length protein, 1:1 ratio, 18 h

ALGGLLTPL [TMEM9-mer]
stimulation of Jurkat-TCR2 cells (in words) [1]: could all stimulate the Jurkat-TCR2 cells
cell-mediated cytotoxicity (in words) (H1395 lung cancer cells): weaker targets for cell-mediated cytotoxicity compared to those with LMP9-mer
recognition by TCR16 (in words) [2]: recognized TMEM9-mer but not the microbial antigens

AMGGLLTQLAM
stimulation of Jurkat-TCR2 cells (in words) [1]: stimulated Jurkat cells expressing TCR2

LLGGLLTMV [EntS9-mer]
stimulation of Jurkat-TCR2 cells (in words) [1]: could all stimulate the Jurkat-TCR2 cells

CLGGLLTMV [LMP9-mer]
stimulation of Jurkat-TCR2 cells (in words) [1]: could all stimulate the Jurkat-TCR2 cells

LLGTLVAML
stimulation of Jurkat-TCR15 clone (in words) (Jurkat-TCR15 clone): also stimulated the Jurkat-TCR15 clone

KLGGLLTMVGV
stimulation of Jurkat-TCR2 cells (in words) [1]: stimulated Jurkat cells expressing TCR2

B1: TMEM161A: full-length protein TMEM161A expressed in HLA-A*02+ 293T cells (protein, UniProt Q9NX61 1-479, looked up)
chain: MAVLGVQLVVTLLTATLMHRLAPHCSFARWLLCNGSLFRYKHPSEEELRALAGKPRPRGRKERWANGLSEEKPLSVPRDAPFQLETCPLTTVDALVLRFFLEYQWFVDFAVYSGGVYLFTEAYYYMLGPAKETNIAVFWCLLTVTFSIKMFLTVTRLYFSAEEGGERSVCLTFAFLFLLLAMLVQVVREETLELGLEPGLASMTQNLEPLLKKQGWDWALPVAKLAIRVGLAVVGSVLGAFLTFPGLRLAQTHRDALTMSEDRPMLQFLLHTSFLSPLFILWLWTKPIARDFLHQPPFGETRFSLLSDSAFDSGRLWLLVVLCLLRLAVTRPHLQAYLCLAKARVEQLRREAGRIEAREIQQRVVRVYCYVTVVSLQYLTPLILTLNCTLLLKTLGGYSWGLGPAPLLSPDPSSASAAPIGSGEDEVQQTAARIAGALGGLLTPLFLRGVLAYLIWWTAACQLLASLFGLYFHQHLAGS
modifications: full-length
stimulation of TCR2-T cells by full-length protein (in words) [3]: appearing to be the weakest stimulator
